Square brackets hold non-standard residues; d marks the D form. Peptide text beside a SMILES is read from it. Oic = O=C(O)[C@@H]1C[C@@H]2CCCC[C@@H]2N1; d2Nal = N[C@H](Cc1ccc2ccccc2c1)C(=O)O; αMeF = C[C@](N)(Cc1ccccc1)C(=O)O; Orn = NCCC[C@H](N)C(=O)O
What was measured:
aminopeptidase M (AmM) = biological target: T1, aminopeptidase M (AmM) (Homo sapiens, UniProt P15144); experiment: In vitro metabolic stability against human plasma AmM; type: in vitro ADME; conditions: male, human plasma as source of aminopeptidase M, pH 7.5, peptide 200 μM, 60 min incubation, mean ± SEM of 3, read-out: Peptide metabolism (%) Human plasma AmM
T1 construct: incubated for 60 min with 50 μl of human plasma; from tissue; host or cells: human plasma from heparinized blood of healthy male volunteers
T1 sequence (P15144 whole entry): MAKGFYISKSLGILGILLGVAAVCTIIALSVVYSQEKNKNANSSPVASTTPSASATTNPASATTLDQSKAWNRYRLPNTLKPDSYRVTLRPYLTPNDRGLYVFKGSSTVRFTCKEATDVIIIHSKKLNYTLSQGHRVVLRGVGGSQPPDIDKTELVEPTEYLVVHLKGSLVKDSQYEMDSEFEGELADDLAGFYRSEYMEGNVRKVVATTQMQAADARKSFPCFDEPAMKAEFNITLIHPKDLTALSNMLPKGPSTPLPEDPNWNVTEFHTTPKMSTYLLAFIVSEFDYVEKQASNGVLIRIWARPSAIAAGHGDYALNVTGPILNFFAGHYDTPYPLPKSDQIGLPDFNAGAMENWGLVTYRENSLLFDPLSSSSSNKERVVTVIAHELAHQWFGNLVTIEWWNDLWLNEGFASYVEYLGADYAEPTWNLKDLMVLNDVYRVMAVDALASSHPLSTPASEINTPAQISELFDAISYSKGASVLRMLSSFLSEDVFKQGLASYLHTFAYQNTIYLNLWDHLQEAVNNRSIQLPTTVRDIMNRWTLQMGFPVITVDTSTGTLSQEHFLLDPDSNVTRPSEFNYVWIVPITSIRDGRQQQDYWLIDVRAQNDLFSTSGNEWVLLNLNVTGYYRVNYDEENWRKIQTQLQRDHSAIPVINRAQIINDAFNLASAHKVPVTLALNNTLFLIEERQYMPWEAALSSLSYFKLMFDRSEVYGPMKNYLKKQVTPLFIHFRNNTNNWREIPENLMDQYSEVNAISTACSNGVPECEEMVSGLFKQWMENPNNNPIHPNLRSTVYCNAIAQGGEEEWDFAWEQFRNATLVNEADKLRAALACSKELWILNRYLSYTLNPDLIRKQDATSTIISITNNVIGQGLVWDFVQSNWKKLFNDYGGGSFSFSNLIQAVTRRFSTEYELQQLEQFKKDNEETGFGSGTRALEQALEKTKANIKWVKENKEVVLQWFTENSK
Protocol: These assays were performed using three enzyme preparations: purified angiotensin converting enzyme (ACE; from rabbit lung), human plasma as a, source of aminopeptidase M (AmM) and human platelets as a source of aminopeptidase P (AmP).
Human plasma AmM was prepared as previously described (Gobeil et al., 1999, Hypertension, 33, 823–829). Blood (5 ml) was withdrawn from healthy normotensive male Caucasian volunteers and put into heparinized tube (200 U). Blood samples were centrifuged at 1500 rpm for 15 min in a refrigerated tabletop centrifuge. The peptide antagonists (200 μM) were placed in a PBS buffer (50 mM, pH 7.5, containing 300 mM NaCl) and incubated for 60 min with 50 μl of human plasma (total volume of the medium, 375 μl). Immersing samples into boiling water and then cooling them on ice stopped the hydrolysis reaction. Control experiments have shown that ≈70% of the kininase activity that is present in the human plasma is abolished by amastatin (1 μM) and that the incubation of Lys-[Leu^8]desArg^9BK with this enzymatic preparation led to the production of [Leu^8]desArg^9BK as detected by electrospray mass spectrometry.

BKB1 receptor = biological target: T2, BKB1 receptor (Oryctolagus cuniculus, UniProt P48748); experiment: Isolated rabbit aorta (rbA) organ bath, antagonist potency pA2; type: cell-based; conditions: rabbit aorta without endothelium; mean ± SEM of 4–7 experiments; read-out: Antagonist potencies (pA2) BKB1-R rbA (converted)
T2 construct: The rabbit aorta without endothelium (which contains only the BKB1 receptor); from tissue; host or cells: isolated rabbit aorta (rbA) without endothelium
T2 sequence (P48748 1-352): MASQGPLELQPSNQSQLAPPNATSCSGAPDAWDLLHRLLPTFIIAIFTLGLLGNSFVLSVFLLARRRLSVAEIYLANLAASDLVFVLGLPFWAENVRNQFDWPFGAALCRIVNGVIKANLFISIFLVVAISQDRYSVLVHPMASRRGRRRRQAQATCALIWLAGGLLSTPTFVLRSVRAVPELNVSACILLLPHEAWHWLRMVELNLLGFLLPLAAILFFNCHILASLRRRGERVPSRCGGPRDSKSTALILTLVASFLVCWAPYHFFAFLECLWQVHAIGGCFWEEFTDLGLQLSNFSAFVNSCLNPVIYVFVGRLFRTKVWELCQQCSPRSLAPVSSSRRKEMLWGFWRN
Protocol: (§1) Selected antagonists were tested for activities in three isolated organs: (1) the rabbit aorta (rbA), (2) the human umbilical vein (hUV) and (3) the rabbit jugular vein (rbJV).
(§2) All details regarding the procurements of human umbilical cords and rabbit vessels as well as, the procedures for preparing the isolated organs and the experimental protocols are described in these respective publications: rbA (Rioux et al. 1973, Can J Physiol Pharmacol 51, 114–121); hUV (Gobeil et al. 1996, Br J Pharmacol 118, 289–294), and rbJV (Gaudreau et al. 1981, Can J Physiol Pharmacol 59, 371–379).
The rabbit aorta without endothelium (which contains only the BKB1 receptor) was used to determine the antagonistic activities of each compound.
(§3) The rabbit jugular vein (a pure BKB2 receptor system) was used to exclude any action of the new compounds on the BKB2 receptor and thus establish their selectivity. All tissues were treated with captopril (1 μM) to prevent the degradation of the peptidic agonists.
(§4) Repeated applications of a single and double concentration of BK (on rbJV,) or of desArg^9BK (rbA and hUV) were made in the absence and in presence of the various peptides to evaluate their apparent affinities as antagonists, in terms of pA2 (-log10 of the molar concentration of antagonist that reduces the effect of a double concentration of agonist to that of a single one) (Schild 1947, Br J Pharmacol 2, 189–206).

BKB2 receptor = biological target: T3, BKB2 receptor (Oryctolagus cuniculus, UniProt Q28642); experiment: Isolated rabbit jugular vein (rbJV) organ bath, antagonist potency pA2; type: cell-based; conditions: BK as agonist, read-out: Antagonist potencies (pA2) BKB2-R rbJV (converted)
T3 construct: The rabbit jugular vein (a pure BKB2 receptor system); from tissue; host or cells: isolated rabbit jugular vein (rbJV)
T3 sequence (Q28642 1-367): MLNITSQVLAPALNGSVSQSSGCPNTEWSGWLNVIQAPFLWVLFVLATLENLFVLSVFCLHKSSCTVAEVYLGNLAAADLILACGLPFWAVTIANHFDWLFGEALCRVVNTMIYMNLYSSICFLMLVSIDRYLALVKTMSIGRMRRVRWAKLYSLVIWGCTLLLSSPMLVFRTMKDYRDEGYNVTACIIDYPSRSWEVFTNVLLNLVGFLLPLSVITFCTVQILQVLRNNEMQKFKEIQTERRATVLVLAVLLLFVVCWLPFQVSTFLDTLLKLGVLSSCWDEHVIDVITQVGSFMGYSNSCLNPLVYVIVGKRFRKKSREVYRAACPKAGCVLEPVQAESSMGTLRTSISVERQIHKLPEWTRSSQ
Protocol: as §1, §2, §3, §4

SMILES | metabolised at 1 h, 200 µM (aminopeptidase M (AmM)) [%] | Kb (BKB1 receptor) [nM] | Kb (BKB2 receptor) [nM]
CC[C@H](C)[C@H](NC(=O)[C@@H](Cc1ccc2ccccc2c1)NC(=O)[C@H](CO)NC(=O)[C@](C)(Cc1ccccc1)NC(=O)CNC(=O)[C@@H]1CCCN1C(=O)[C@@H]1C[C@@H]2CCCC[C@@H]2N1C(=O)[C@H](CCCNC(=N)N)NC(=O)[C@H](CCCN)NC(C)=O)C(=O)O [compound c, Ac-Orn[Oic^2,(α-Me)Phe^5,D-βNal^7,Ile^8]desArg^9BK] (Ac-[Orn]R[Oic]PG[αMeF]S[d2Nal]I-OH) | 0 | 2.29 | > 1000
CC[C@H](C)[C@H](NC(=O)[C@@H](Cc1ccc2ccccc2c1)NC(=O)[C@H](CO)NC(=O)[C@](C)(Cc1ccccc1)NC(=O)CNC(=O)[C@@H]1CCCN1C(=O)[C@@H]1C[C@@H]2CCCC[C@@H]2N1C(=O)[C@H](CCCNC(=N)N)NC(=O)[C@H](CCCCN)NC(C)=O)C(=O)O [Ac-Lys[Oic^2,(α-Me)Phe^5,D-βNal^7,Ile^8]desArg^9BK] (Ac-KR[Oic]PG[αMeF]S[d2Nal]I-OH) | 0 | 3.16 | > 1000

— US7211566B2 (Universite De Sherbrooke, priority 2003, dated 2007)
